These results are taken from patent US7960393B2, “Pyrimidine derivatives useful for the treatment of diseases mediated by CRTH2” (Actimis Pharmaceuticals, Inc., priority 2002, dated 2011).

As usually defined, the melting point is the temperature, or range, at which the solid turns liquid.

One series has as its target T1, human CRTH2 (Homo sapiens, UniProt Q9Y5Y4).
T1 construct: expressed in transfected cells; host or cells: L1.2 cells, pEAK expression vector, puromycin-selected
T1 sequence (Q9Y5Y4 1-395): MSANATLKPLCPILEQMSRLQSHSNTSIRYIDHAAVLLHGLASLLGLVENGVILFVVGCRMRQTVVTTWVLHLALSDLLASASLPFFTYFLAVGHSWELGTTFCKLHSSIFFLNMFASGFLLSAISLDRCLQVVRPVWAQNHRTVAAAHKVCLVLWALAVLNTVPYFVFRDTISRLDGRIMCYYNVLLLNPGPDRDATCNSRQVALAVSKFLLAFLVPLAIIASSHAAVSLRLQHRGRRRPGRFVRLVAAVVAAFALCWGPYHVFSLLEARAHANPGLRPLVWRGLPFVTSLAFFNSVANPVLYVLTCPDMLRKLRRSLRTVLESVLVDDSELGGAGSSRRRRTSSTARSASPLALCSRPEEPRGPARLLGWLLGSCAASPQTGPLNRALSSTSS
The experiment in a line: Measurement of Ca2+ mobilization in the human CRTH2-transfected L1.2 cell line (Assay 1). The format is cell-based. The note with it: PGD2-induced Ca2+ mobilization in CRTH2-transfected L1.2 cells; compounds as yielded by solid phase synthesis, purity about 40 to 90%; read-out: Activity class. In short, it runs like this: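 Human CRTH2 was stably expressed in L1.2 cells (puromycin-selected) loaded with Fluo-3AM (1 μM final) for 60 min at room temperature. Buffer was 20 mM HEPES pH 7.6, 0.1% BSA, 1 mM probenecid in Hanks'. Cells (2×10^5/well) got compound for 5 min at RT, with fluorescence at 480 nm. IC50 bins: A ≤10 nM, B ≤100 nM, C ≤500 nM, D above; samples were solid-phase products of about 40–90% purity.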

Bounds are passed on as bounds.

Compound `CN(C)c1nc(Cc2ccc(NC(=O)c3cccc(Cl)c3)cc2)ncc1CC(=O)O` [Example 2-15] came in with a melting point of 111 to 113 °C. On human CRTH2, the IC50 lay in the range of 0.01 to 0.1 µM.

As to `CC(c1ccc(NC(=O)c2ccc(Cl)c(Cl)c2)cc1)c1ncc(CC(=O)O)c(N(C)C)n1` (stereo not drawn) [Example 2-21], the melting point lay in the range of 137 to 140 °C. Moreover, at human CRTH2, the IC50 was less than 0.01 µM.

The compound `CC(c1ccc(NC(=O)c2ccc(C(F)(F)F)cc2)cc1)c1ncc(CC(=O)O)c(N(C)C)n1` (stereo not drawn) [Example 2-22] displayed a melting point of 151 to 154 °C. For the same compound, at human CRTH2, the IC50 is less than 0.01 µM.

Regarding `CC(c1ccc(NC(=O)/C=C/c2ccccc2)cc1)c1ncc(CC(=O)O)c(N(C)C)n1` (stereo not drawn) [Example 2-23], the melting point was in the range of 150 to 153 °C. For the same compound, on human CRTH2, the IC50 is less than 0.01 µM.

Compound `CC(c1ccc(NC(=O)c2ccc3ccccc3n2)cc1)c1ncc(CC(=O)O)c(N(C)C)n1` (stereo not drawn) [Example 2-24] yielded a melting point of 120 to 123 °C. The IC50 on human CRTH2 lay in the range of 0.01 to 0.1 µM.

Regarding `CC(c1ccc(NC(=O)c2ccc(Cl)cc2)cc1)c1ncc(CC(=O)O)c(N(C)C)n1` (stereo not drawn) [Example 2-25], the melting point fell in the range of 131 to 134 °C. Further, on human CRTH2, the IC50 is less than 0.01 µM.

The compound `CC(c1ccc(NC(=O)c2ccc(F)cc2)cc1)c1ncc(CC(=O)O)c(N(C)C)n1` (stereo not drawn) [Example 2-26] returned a melting point of 114 to 117 °C. The IC50 on human CRTH2 is less than 0.01 µM.

In the case of `O=C(O)Cc1cnc(Cc2ccc(NC(=O)c3ccc4ccccc4n3)cc2)nc1N1CCCC1` [Example 2-27], the melting point is 221 to 224 °C (dec.). Moreover, the IC50 on human CRTH2 is less than 0.01 µM.

In the case of `O=C(O)Cc1cnc(Cc2ccc(NC(=O)c3ccc(Cl)cc3)cc2)nc1N1CCCC1` [Example 2-28], the melting point fell in the range of 151 to 153 °C. For the same compound, the IC50 at human CRTH2 is less than 0.01 µM.

As to `O=C(O)Cc1cnc(Cc2ccc(NC(=O)c3ccc(F)cc3)cc2)nc1N1CCCC1` [Example 2-29], the melting point lay in the range of 143 to 145 °C. For the same compound, at human CRTH2, the IC50 was less than 0.01 µM.

With `O=C(O)Cc1cnc(Cc2ccc(NC(=O)c3ccc(C(F)(F)F)cc3)cc2)nc1N1CCCC1` [Example 2-30], the melting point is 156 to 158 °C (dec.). In addition, at human CRTH2, the IC50 is less than 0.01 µM.

Compound `O=C(O)Cc1cnc(Cc2ccc(NC(=O)c3ccc4ccccc4c3)cc2)nc1N1CCCC1` [Example 2-31] showed a melting point of 150 to 151 °C. For the same compound, on human CRTH2, the IC50 was less than 0.01 µM.

`CC(C)CC(=O)Nc1ccc(Cc2ncc(CC(=O)[O-])c(N3CCCC3)n2)cc1.[Na+]` [Example 2-32] had a melting point of 148 to 150 °C. Besides, the IC50 at human CRTH2 lay within 0.01 to 0.1 µM.

In the case of `O=C(O)Cc1cnc(Cc2ccc(NC(=O)CC3CC3)cc2)nc1N1CCCC1` [Example 2-33], the melting point was 145 to 148 °C (dec.). Also, on human CRTH2, the IC50 fell in the range of 0.1 to 0.5 µM.

`COCC(=O)Nc1ccc(Cc2ncc(CC(=O)O)c(N3CCCC3)n2)cc1` [Example 2-34]: the melting point was 102 to 105 °C. In addition, the IC50 at human CRTH2 was more than 0.5 µM.

`CC(C)(C)CC(=O)Nc1ccc(Cc2ncc(CC(=O)O)c(N3CCCC3)n2)cc1` [Example 2-35] gave a melting point of 147 to 150 °C. The IC50 at human CRTH2 is 0.01 to 0.1 µM.

`CCCC(=O)Nc1ccc(Cc2ncc(CC(=O)O)c(N3CCCC3)n2)cc1` [Example 2-36] gave a melting point of 130 to 133 °C. In addition, the IC50 at human CRTH2 fell in the range of 0.1 to 0.5 µM.

As to `COCCN(C)c1nc(Cc2ccc(NC(=O)c3ccc4ccccc4c3)cc2)nc(Cl)c1CC(=O)O` [Example 3-5], the melting point came out at 144 °C. On human CRTH2, the IC50 is less than 0.01 µM.

`CN(CC(=O)NC1CCCC1)c1nc(Cc2ccc(NCc3ccccc3)cc2)nc(Cl)c1CC(=O)O` [Example 5-2] returned a melting point of more than 70 °C. Also, the IC50 at human CRTH2 was more than 0.5 µM.

On to `CN(CC(=O)NC1CCCC1)c1nc(Cc2ccc(NCc3ccc4ccccc4c3)cc2)nc(Cl)c1CC(=O)O` [Example 5-3], for which the melting point was more than 96 °C. On human CRTH2, the IC50 lay within 0.1 to 0.5 µM.

Regarding `CN(C)c1nc(Cc2ccc(NC(=O)/C=C/c3ccc(Cl)cc3)cc2)nc(N(C)C)c1CC(=O)O` [Example 7-8], the melting point was 162 °C. The IC50 at human CRTH2 was less than 0.01 µM.

`CN(C)c1nc(Cc2ccc(NC(=O)c3ccc4ccccc4n3)cc2)nc(N2CCCC2)c1CC(=O)O` [Example 7-9] yielded a melting point of 131 to 133 °C. The IC50 on human CRTH2 was 0.1 to 0.5 µM.

Compound `CN(C)c1nc(Cc2ccc(NC(=O)/C=C/c3ccc(Cl)cc3)cc2)nc(N2CCCC2)c1CC(=O)O` [Example 7-10] had a melting point of 146 to 149 °C. Moreover, the IC50 at human CRTH2 was less than 0.01 µM.

With `CN(C)c1nc(Cc2ccc(NC(=O)/C=C/c3ccccc3)cc2)nc(N2CCCC2)c1CC(=O)O` [Example 7-11], the melting point was in the range of 151 to 153 °C. Besides, the IC50 at human CRTH2 is 0.01 to 0.1 µM.

Compound `CN(C)c1nc(Cc2ccc(NC(=O)c3ccc(C(F)(F)F)cc3)cc2)nc(N2CCCC2)c1CC(=O)O` [Example 7-12] yielded a melting point of 144 to 147 °C. Besides, the IC50 on human CRTH2 lay in the range of 0.01 to 0.1 µM.

In the case of `CN(C)c1nc(Cc2ccc(NC(=O)c3ccc(Cl)c(Cl)c3)cc2)nc(N2CCCC2)c1CC(=O)O` [Example 7-13], the melting point was in the range of 150 to 152 °C. Moreover, the IC50 on human CRTH2 lay within 0.1 to 0.5 µM.

Take `CN(C)c1nc(Cc2ccc(NC(=O)c3ccccc3-c3ccccc3)cc2)nc(N2CCCC2)c1CC(=O)O` [Example 7-14]: the melting point was 132 to 134 °C. The IC50 at human CRTH2 is more than 0.5 µM.

`CN(C)c1nc(Cc2ccc(NC(=O)c3cccc(-c4ccccc4)c3)cc2)nc(N2CCCC2)c1CC(=O)O` [Example 7-15]: the melting point is 147 to 179 °C. Also, the IC50 at human CRTH2 was 0.01 to 0.1 µM.

The compound `CN(C)c1nc(Cc2ccc(NC(=O)c3ccc(-c4ccccc4)cc3)cc2)nc(N2CCCC2)c1CC(=O)O` [Example 7-16] showed a melting point of 224 to 226 °C. For the same compound, the IC50 at human CRTH2 fell in the range of 0.01 to 0.1 µM.

For `CN(C)c1nc(Cc2ccc(NC(=O)c3ccc4ccccc4n3)cc2)nc(N2CCOCC2)c1CC(=O)O` [Example 7-17], the melting point lay in the range of 205 to 207 °C. Further, on human CRTH2, the IC50 is more than 0.5 µM.

For the compound `CN(C)c1nc(Cc2ccc(NC(=O)c3ccc(Cl)cc3)cc2)nc(N2CCOCC2)c1CC(=O)O` [Example 7-18], the melting point was 216 to 218 °C (dec.). On human CRTH2, the IC50 fell in the range of 0.1 to 0.5 µM.

Compound `CN(C)c1nc(Cc2ccc(NC(=O)c3ccc(Cl)c(Cl)c3)cc2)nc(N2CCOCC2)c1CC(=O)O` [Example 7-19] came in with a melting point of 196 to 198 °C. At human CRTH2, the IC50 lay in the range of 0.01 to 0.1 µM.

For `CN(C)c1nc(Cc2ccc(NC(=O)c3ccc(C(F)(F)F)cc3)cc2)nc(N2CCOCC2)c1CC(=O)O` [Example 7-20], the melting point was 212 to 213 °C (dec.). Besides, the IC50 at human CRTH2 is 0.01 to 0.1 µM.

As to `CN(C)c1nc(Cc2ccc(NC(=O)/C=C/c3ccccc3)cc2)nc(N2CCOCC2)c1CC(=O)O` [Example 7-21], the melting point lay within 129 to 132 °C. In addition, the IC50 at human CRTH2 fell in the range of 0.01 to 0.1 µM.

The compound `CN(C)c1nc(Cc2ccc(NC(=O)c3ccccc3Oc3ccccc3)cc2)nc(N2CCCC2)c1CC(=O)O` [Example 7-22] showed a melting point of 192 to 194 °C. Also, on human CRTH2, the IC50 was more than 0.5 µM.

Consider `CN(C)c1nc(Cc2ccc(NC(=O)c3cccc(Oc4ccccc4)c3)cc2)nc(N2CCCC2)c1CC(=O)O` [Example 7-23], for which the melting point lay in the range of 123 to 125 °C. Besides, at human CRTH2, the IC50 is 0.01 to 0.1 µM.

In turn, `CN(C)c1nc(Cc2ccc(NC(=O)c3ccc(Oc4ccccc4)cc3)cc2)nc(N2CCCC2)c1CC(=O)O` [Example 7-24] came in with a melting point of 137 to 140 °C. Besides, at human CRTH2, the IC50 was less than 0.01 µM.

Turning to `COc1ccc(/C=C/C(=O)Nc2ccc(Cc3nc(N(C)C)c(CC(=O)O)c(N4CCOCC4)n3)cc2)cc1` [Example 7-25], the melting point was 192 to 195 °C (dec.). Also, the IC50 on human CRTH2 is less than 0.01 µM.

On to `CN(C)c1nc(Cc2ccc(NC(=O)COc3ccccc3)cc2)nc(N2CCOCC2)c1CC(=O)O` [Example 7-26], for which the melting point fell in the range of 172 to 175 °C. The IC50 on human CRTH2 is more than 0.5 µM.

In the case of `COc1ccccc1/C=C/C(=O)Nc1ccc(Cc2nc(N(C)C)c(CC(=O)O)c(N3CCOCC3)n2)cc1` [Example 7-27], the melting point is 125 to 128 °C. Moreover, the IC50 on human CRTH2 was less than 0.01 µM.

On to `CN(C)c1nc(Cc2ccc(NC(=O)c3ccc(F)cc3)cc2)nc(N2CCCC2)c1CC(=O)O` [Example 7-28], for which the melting point fell in the range of 132 to 135 °C. Further, the IC50 on human CRTH2 was in the range of 0.1 to 0.5 µM.

`CN(C)c1nc(Cc2ccc(NC(=O)c3ccc(Cl)cc3)cc2)nc(N2CCCC2)c1CC(=O)O` [Example 7-29]: the melting point fell in the range of 140 to 142 °C. In addition, the IC50 at human CRTH2 was in the range of 0.01 to 0.1 µM.

`CN(C)c1nc(Cc2ccc(NC(=O)c3ccc(F)cc3)cc2)nc(N2CCOCC2)c1CC(=O)O` [Example 7-30] came in with a melting point of 197 to 198 °C. In addition, the IC50 at human CRTH2 was 0.1 to 0.5 µM.

`COCc1nc(Cc2ccc(NC(=O)c3ccc4ccccc4c3)cc2)nc(N(C)C)c1CC(=O)O` [Example 8-6]: the melting point lay in the range of 128 to 131 °C. In addition, on human CRTH2, the IC50 is less than 0.01 µM.

Take `COCc1nc(Cc2ccc(NC(=O)c3ccc(C(F)(F)F)cc3)cc2)nc(N(C)C)c1CC(=O)O` [Example 8-7]: the melting point was 126 to 128 °C. Also, the IC50 at human CRTH2 is less than 0.01 µM.
